Data as given in patent publication US11419855B2, “Pharmaceutical preparation” (KOWA COMPANY, LTD., priority 2017, dated 2022).

What was measured:
[1] = Examination of stability of pemafibrate, stored alone in open state in dish (HPLC related substances); assay type: physicochemical
Experimental: 250 mg of pemafibrate was placed in a dish, and stored in an uncapped state (open state) in a dark place at 40° C. and 75% relative humidity (RH) for 3 months.
The amounts of pemafibrate-derived decomposition products (related substances) before the start of storage and after storage at 40° C. and 75% RH for 3 months were evaluated through the following method.
The sum of related substance-derived peak areas was evaluated in terms of a ratio (%) to the pemafibrate-derived peak area using an HPLC apparatus, and the ratio was defined as the “Total amount (%) of related substances”.

[2] = Hygroscopic property evaluation of pemafibrate crystal (Karl Fischer moisture content); assay type: physicochemical
Experimental: A pemafibrate crystal was produced by recrystallizing pemafibrate from an ethyl acetate/heptane mixture in accordance with the method for producing a pemafibrate crystal as described in Non-Patent Document 1.
250 mg of the pemafibrate crystal was placed in a dish, and stored in an uncapped state (open state) in a dark place at 25° C. and 83% relative humidity (RH) for 3 months. The hygroscopic property was evaluated by measuring the moisture contents before and after the storage. The measurement of the moisture content was performed by a coulometric titration method in accordance with The Japanese Pharmacopoeia, 17th Edition, Moisture Content Measurement Method (Karl Fischer Method).

| SMILES | Stability at high humidity ([1]; 75% RH, storage for 3 months, in words) | Total amount (%) of related substances, before storage ([1]; before storage, HPLC ratio of related substance peak areas to pemafibrate peak area) [%] | Total amount (%) of related substances, after storage at 40° C. and 75% RH for 3 months ([1]; open state in dish, dark place, 40° C., 75% RH, 3 months) [%] | Moisture content (%), before storage ([2]; before storage, Karl Fischer coulometric titration) [%] | Moisture content (%), after storage at 25° C. and 83% RH for 3 months ([2]; open state in dish, dark place, 25° C., 83% RH, 3 months) [%] | Hygroscopic property ([2]; storage at 83% RH for 3 months, in words) |
| --- | --- | --- | --- | --- | --- | --- |
| CC[C@@H](Oc1cccc(CN(CCCOc2ccc(OC)cc2)c2nc3ccccc3o2)c1)C(=O)O [Pemafibrate, (2R)-2-[3-([1,3-Benzoxazol-2-yl[3-(4-methoxyphenoxy)propyl]amino]methyl)phenoxy]butanoic acid] | stable | <0.05 | <0.05 | – | – | – |
| CC[C@@H](Oc1cccc(CN(CCCOc2ccc(OC)cc2)c2nc3ccccc3o2)c1)C(=O)O [Pemafibrate crystal, (2R)-2-[3-([1,3-Benzoxazol-2-yl[3-(4-methoxyphenoxy)propyl]amino]methyl)phenoxy]butanoic acid] | – | – | – | <0.1 | <0.1 | not hygroscopic |
